What all share (assay type): cell-based
The test system of one assay is TNF-α production. Kind of assay: TNF-α production by LPS-stimulated human peripheral blood monocytes (ELISA). The settings on record: LPS 10 ng/ml, 18 h, compound 0.1-100 μM. The protocol: (§1) TNF-α and IL-6 production inhibitory activity of the compound of the present invention was evaluated by determining the amounts of TNF-α and IL-6 produced by the human peripheral blood monocyte stimulated with lipopolysaccharide(LPS). Briefly, human peripheral blood monocyte fraction was isolated from the peripheral venous blood from healthy male volunteers by density gradient centrifugation with Ficoll-Paque (Pharmacia). The monocytes were suspended in RPMI 1640 medium (Gibco BRL) containing 10% FCS and seeded at 5×10^5 cell/160 μl in a 96-well plate.
(§2) The present compound was added to the monocytes cultured and the mixture was left at 37° C. for thirty minutes. Then the monocytes were stimulated by adding LPS (Sigma) at a final concentration of 10 ng/ml and left 37° C. for eighteen hours. For control, the cells were used wherein LPS was added to the cell at a final concentration of 10 ng/ml without the present compound.
(§3) The amount of each of TNF-α and IL-6, which were released in the culture supernatant, was measured using an ELISA kit (R & D). The inhibitory rate (%) of TNF-α and IL-6 production as compared to control was calculated using the following formula from the amounts of TNF-α and […] thus measured: [formula]
(§4) In addition, the concentration of the present compound to inhibit 50% (IC50) was calculated by plotting the inhibitory rate (%) of IL-6 and TNF-α production obtained by varying a final concentration of the present compound of from 0.1 μM to 100 μM.
A general note: In an ELISA, binding on a coated surface is turned into a signal by an enzyme label.

The test system of the next assay is IL-2 production. The assay is described as follows: IL-2 production by PHA-stimulated human peripheral lymphocytes (ELISA). The settings on record: PHA 10 μl/ml, 48 h, compound 0.1-100 μM. The protocol:
Human peripheral lymphocytes were stimulated with mitogen (PHA) to induce IL-2 production. The amount of IL-2 produced was measured to evaluate the inhibitory effect of the present compound. Briefly, human peripheral blood monocyte fraction was isolated in a manner similar to Test Example 1.
The monocytes were suspended in RPM 1640 medium (Gibco BRL) containing 10% FCS and seeded in a petri dish and left at 37° C. for an hour. Then, the cells (lymphocytes) which were not attached to the wall of the petri desh were isolated by centrifugation. The lymphocytes collected were suspended in the medium and seeded at 5×10^5 cell/160 μl in a 96-well plate.
The present compound was added to the lymphocytes cultured and the mixture was left at 37° C. for thirty minutes. Then, the cells were stimulated by adding PHA (Difco) at a final concentration of 10 μl/ml and left at 37° C. for forty eight hours. For control, the cells were used wherein PHA was added to the cell at a final concentration of 10 μl/ml without the present compound.
The amount of IL-2 which was released in the culture supernatant was measured using an ELISA kit (BioSource International). The inhibitory rate (%) of IL-2 production as compared to control was calculated using the following formula from IL-2 amounts thus measured: [formula]
In addition, the concentration of the present compound to inhibit 50% (IC50) was calculated by plotting the inhibitory rate (%) of IL-2 production obtained by varying a final concentration of the present compound of from 0.1 μM to 100 μM.

The test system of another assay is IL-6 production. The assay is described as follows: IL-6 production by LPS-stimulated human peripheral blood monocytes (ELISA). The note with it: Monocyte, LPS 10 ng/ml, 18 h, compound 0.1-100 μM. The protocol: as §1, §2, §3, §4

Each structure is given as a SMILES string.

By IC50 is commonly meant the midpoint of a concentration-inhibition curve. High values mean lower potency, low ones higher potency. For `O=C1C=CCC(CCc2ccccc2)C[C@@H](O)[C@H]1O` (mixture of isomers) [Example 84 (b), (7RS,8RS)-7,8-dihydroxy-5-phenethyl-2-cycloocten-1-one], the IC50 is 8.8 µM in the assay with TNF-α production (Monocyte) and 3.6 µM in the assay on IL-2 production (Lymphocyte).
Consider `O=C1C=CCC(CCc2ccccc2O)C[C@@H](O)[C@H]1O` (mixture of isomers) [Example 85 (a), (7RS,8RS)-7,8-dihydroxy-5-[2-(2-hydroxyphenyl)ethyl]-2-cycloocten-1-one], for which the figures for the concentration for half-maximal inhibition (IC50) in the assay on TNF-α production (Monocyte) and with IL-2 production (Lymphocyte) were 2.2 µM and 64.9 µM, respectively.
The corresponding values for `O=C1/C=C\CCC(Cc2ccccc2)CC[C@@H](O)[C@H]1O` (mixture of isomers) [Example 87, Z-(9RS,10RS)-6-benzyl-9,10-dihydroxy-2-cyclodecen-1-one] are 12.4 µM and 3 µM.
As for `O=C(OC1CC=CC(=O)[C@H](O)[C@H](O)C1)c1ccccc1O` (mixture of isomers) [Example 90 (a), (6RS,7RS)-6,7-dihydroxy-5-oxo-3-cyclooctenyl 2-hydroxybenzoate], the IC50 in the assay on TNF-α production (Monocyte) turned out to be 3.4 µM.
As for `O=C(OC1CC/C=C\C(=O)[C@H](O)[C@H](O)CC1)c1ccccc1O` (mixture of isomers) [Example 92, Z-(7RS,8RS)-7,8-dihydroxy-6-oxo-4-cyclodecenyl (2-hydroxy)benzoate], the results for the IC50 in the assay on TNF-α production (Monocyte) and in the assay with IL-2 production (Lymphocyte) were 1.7 µM and 1.2 µM, respectively.
Take `COc1ccc(C(=O)OC2CC/C=C\C(=O)[C@H](O)[C@H](O)CC2)c(O)c1` (mixture of isomers) [Example 93, Z-(7RS,8RS)-7,8-dihydroxy-6-oxo-4-cyclodecenyl (2-hydroxy-4-methoxy)benzoate]: the half-maximal inhibitory concentration (IC50) was determined as 1.8 µM in the assay with TNF-α production and 2 µM in the assay with IL-2 production.
Consider `O=C1C=CCC(Cc2ccccc2)CCC1` (centres unmarked) [Example 4, 5-Benzyl-2-cycloocten-1-one], for which the half-inhibitory concentration (IC50) worked out at 13.6 µM with TNF-α production (Monocyte) and 23.3 µM with IL-6 production.
For `O=C1C=CCC(CCc2ccccc2)CCC1` (centres unmarked) [Example 5, 5-Phenethyl-2-cycloocten-1-one], the IC50 in the assay with TNF-α production (Monocyte) came out at 13.7 µM; in the assay on IL-6 production it was 21.6 µM; in the assay with IL-2 production (Lymphocyte), 1.7 µM.
Taken in the same sequence, the figures for `O=C1C=CCC(CCc2cccc(O)c2)CCC1` (centres unmarked) [Example 18, 5-[2-(3-Hydroxyphenyl)ethyl]-2-cycloocten-1-one] were 5.9 µM, 6.8 µM and 2.1 µM.
Regarding `O=C1/C=C\CCC(Cc2ccccc2)CCCC1` (centres unmarked) [Example 22 (a), Z-6-benzyl-2-cyclodecen-1-one], the IC50 in the assay on TNF-α production (Monocyte) is 28.1 µM; in the assay on IL-2 production (Lymphocyte), 2.6 µM.
On to `COc1ccc(C(=O)OC2CC=CC(=O)CCC2)c(O)c1` (centres unmarked) [Example 47, 5-Oxo-3-cyclooctenyl (2-hydroxy-4-methoxy)benzoate], for which the IC50 turned out to be 0.5 µM in the assay with TNF-α production and 0.14 µM with IL-2 production.

For the origin of these results see patent US6949585B2, “Cyclooctanone derivatives and cyclodecanone derivative, and use thereof” (Eisai Co., Ltd., priority 2001, dated 2005).
